Test results taken from patent US20060148763A1, “Compounds and methods for regulating triglyceride levels” (priority 2005, published 2006).

Columns and labels:
[1] = tested on: serum triglyceride levels; assay: Rabbit hypercholesteremic model (2% cholesterol diet, 7 weeks): serum triglycerides; format: in vivo, Male New Zealand white rabbits
Protocol: The anti-atherogenic effects of P5P alone and in combination with simvastatin in a rabbit hypercholesteremic model were determined. The study compared the effects of P5P and simvastatin alone and in combination on atherosclerotic lesion formation, lipid profile (total cholesterol, LDL, HDL, triglycerides and oxidized LDL), homocysteine levels and various markers of inflammation (CRP, IL-1β, IL-6, IFN-γ and TNF-α).
Animals—Male New Zealand white rabbits 2.0-3.0 kg.
Animal Feed—The normocholesterol diet is Co-op Complete Rabbit Feed manufactured by Federated Co-operatives Limited (Saskatchewan). The 2% cholesterol diet is Test Diet 0009459 MRab/2% Chol 3/16 manufactured by Purina Mills (USA).
The rabbits were fed the normocholesterol and 2% cholesterol diet ad libitum. All animals received a timothy cube after blood sampling. […]
Group 3: Hypercholesterol diet+P5P 10 mg/kg/day
Group 4: Hypercholesterol diet+simvastatin 5 mg/kg/day
Group 5: Hypercholesterol diet+P5P 10 mg/kg/day+simvastatin 5 mg/kg/day
The rabbits were fed a normocholesterol or hypercholesterol diet for a total of 7 weeks. The normocholesterol rabbits were treated once per day with 1 ml of ethanol and 5 ml of RO water via a nasogastric tube. The hypercholesterol animals were treated once per day with either P5P (10 mg/kg), simvastatin (5 mg/kg) or a combination of P5P and simvastatin (P5P 10 mg/kg; simvastatin 5 mg/kg) via a nasogastric tube. The P5P was dissolved in 5 ml of 0.05 N NaOH so that the pH of the solution is approximately 7. The simvastatin was dissolved in 1 ml of anhydrous ethanol.
Five ml of blood was collected from the marginal ear vein of the rabbits at 0, 2, 4 and 6 weeks. Prior to blood collection the animals were sedated with 1 mg/kg of acepromazine. Following collection, the serum was separated. The serum is aliquoted (500 μl) and frozen at −80° C. until used for the assaying various lipids (total cholesterol, LDL, HDL, triglycerides, oxidized LDL) and cytokines (CRP, IL-1β, IL-6, IFN-γ and TNF-α).
At 7 weeks, the animals were anesthetized and 10 ml of blood was collected. Then the animals were euthanized, and the heart and thoracic aorta removed. The hearts and aortas were frozen in liquid nitrogen or an ethanol dry ice bath and stored at −80° C. until analyzed.
Test Articles—P5P (pyridoxal 5′-phosphate monohydrate) was purchased from Sigma (P82870). Simvastatin is obtained from ACIC Fine Chemicals Inc. Two test compound vials were provided for each animal for each day. The first vial (small) was diluted in 1 ml of anhydrous ethanol. The second vial was diluted in either 5 ml of RO water or 5 ml of 0.05 N NaOH. The diluent for each vial was clearly marked on the vial. The test solutions were prepared fresh each day just before they were administered to the animals. The stock P5P was stored in a refrigerator at 4° C. under low light conditions. The simvastatin was stored following the manufacture recommendations. The individual test vials were stored in a refrigerator at 4° C. under low light conditions.
Test Article(s) Dose, Route of Administration and Duration—The rabbits were treated orally with the drugs, once per day for a total of 7 weeks. The contents of vial one (small; 1 ml) were given to the animals first, followed by the contents of vial 2 (large; 5 ml). The test compound treatments were followed by a 5 ml RO water chaser.

serum triglyceride (TG) = assay: Phase II cross-over study of P5P alone and with lisinopril in hypertensive type 2 diabetic patients: triglycerides; format: in vivo, human; settings: for TG change, 16 wk vs. baseline (b): Lisinopril/P5P therapy, patients with TG ≧1.7 mmol/L; for reduction in serum TG levels vs. baseline: patients with elevated TG (>1.7 mmol/L) at baseline
Protocol: Objective—A phase II clinical study was conducted to determine the effects of pyridoxal-5′-phosphate in combination with lisinopril on blood pressure and metabolic function in hypertensive patients with type 2 diabetes.
Summary of Study Design—The phase II study was a randomized, parallel group, cross-over, double-blinded to study medication, placebo-controlled comparison of P5P BID at total daily doses of 100, 300, or 1000 mg alone and in combination with 20 mg lisinopril given once daily (QD). In order to protect against antihypertensive and metabolic carry-over effects of lisinopril, all patients were randomized in 2 different treatment sequences. Patients randomized in the first treatment sequence receive an 8-week treatment with lisinopril 20 mg and P5P (or placebo) and then an 8-week treatment with P5P alone (or placebo). Patients randomized in the second treatment sequence receive an 8-week treatment with P5P alone and then an 8-week treatment with lisinopril 20 mg and P5P (or placebo). In each treatment sequence, all patients were randomized to P5P at the different prespecified dosages.
Mean trough sitting and standing BP were measured at each visit. Twenty-four hour ambulatory BP monitoring (ABPM) were performed at Visit 2 prior to randomization (end of washout period) and after week 8 (Visit 5) and week 16 (Visit 8) weeks of active therapy. Laboratory tests were performed at screening (Visit 1), prior to randomization (Visit 2), at week 2 (Visit 3a), week 8 (Visit 5), week 10 (Visit 6a), and at week 16 (Visit 8).
Treatment Plan—Two to Four-week Washout (Baseline) Period. Patients were instructed on the proper procedure for discontinuing their current antihypertensive medications (discontinuation or tapering) according to the manufacturer's label specifications. If a patient's current antihypertensive treatment needed to be tapered earlier, the Investigator complied with the corresponding timelines before randomization. With the exception of any tapering off of prior therapy, if any, no other anti-hypertensive medication was given to the patient during the washout period. Patients continued any existing diabetic treatment with sulfonylureas (tolbutamide, tolazamide, acetohexamide, chlorpropamide and second generation glyburide, glipizide, glimepiride), D-Phenylalanine derivatives, metformin, thiazolidinediones, acarbose, miglitol, and/or insulin throughout the study. Patients received placebo to be taken twice daily during the washout period. Standard diabetic medication was maintained throughout study. The duration of the washout period was two to four weeks, at the discretion of the Investigator taking into consideration whether the patient's blood pressure had stabilized following removal of any prior antihypertensive medication. […]

[2] = hypercholesterol diet, n = 5, P5P 10 mg/kg/day, simvastatin 5 mg/kg/day oral
[3] = rabbits fed the hypercholesterol diet, 7 weeks

SMILES: Cc1ncc(COP(=O)(O)O)c(C=O)c1O [P5P, pyridoxal-5′-phosphate]
- average serum triglyceride levels as fraction of the levels observed in the control rabbits ([1]; end of the 7 week study period): about ⅓
- Triglycerides, Week 2 [1, 2]: 1.244 mmol/L
- Triglycerides, Week 4 [1, 2]: 1.530 mmol/L
- Triglycerides, Week 6 [1, 2]: 1.066 mmol/L
- Triglycerides, Week 7 ([1]; hypercholesterol diet, n = 5, P5P 10 mg/kg/day, simvastatin 5 mg/kg/day oral, end of study): 1.038 mmol/L
- Triglycerides, Week 0 ([1]; hypercholesterol diet, n = 5, P5P 10 mg/kg/day, simvastatin 5 mg/kg/day oral, start of study): 1.168 mmol/L
- comparison of serum triglyceride reduction between treatments [1, 3]: more effective than simvastatin treatment
- effect on serum triglyceride levels vs untreated control rabbits [1, 3]: effective in reducing serum triglyceride levels
- TG change, 16 wk vs. baseline (b) (serum triglyceride (TG); P5P 300 mg daily (BID)): −0.70 mmol/L (p = 0.04)b
- reduction in serum TG levels vs. baseline (serum triglyceride (TG); P5P 300 mg): about 0.70 mmol/L
- TG change, 16 wk vs. baseline (b) (serum triglyceride (TG); P5P 1000 mg daily (BID)): −0.56 mmol/L (p = 0.12)b
- reduction in serum TG levels vs. baseline (serum triglyceride (TG); P5P 1000 mg): about 0.56 mmol/L
